Six compounds from patent publication US7557113B2, “Substituted pyrrolo[3,2-d]pyrimidine derivatives” (Teijin Pharma Limited, priority 2003, dated 2009) can be followed below.

A word on the IC50: it is the concentration at which inhibition is half-maximal.

Bounds are passed on as bounds.

recombinant human GSK-3β, sequence (P49841 whole entry): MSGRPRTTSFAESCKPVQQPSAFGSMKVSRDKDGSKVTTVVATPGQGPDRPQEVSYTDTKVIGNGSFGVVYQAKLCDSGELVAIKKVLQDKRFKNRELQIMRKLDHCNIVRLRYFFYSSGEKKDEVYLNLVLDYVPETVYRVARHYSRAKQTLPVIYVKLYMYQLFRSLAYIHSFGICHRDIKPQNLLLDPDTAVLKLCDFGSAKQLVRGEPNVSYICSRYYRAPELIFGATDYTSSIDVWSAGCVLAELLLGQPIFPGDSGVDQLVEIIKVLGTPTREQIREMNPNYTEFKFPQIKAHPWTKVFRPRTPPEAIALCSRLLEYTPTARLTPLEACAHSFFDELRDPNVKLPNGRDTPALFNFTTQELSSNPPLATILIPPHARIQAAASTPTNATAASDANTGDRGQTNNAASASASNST

The first assay concerns the target recombinant human GSK-3β (Homo sapiens, UniProt P49841). As to the kind of experiment: Determination of Inhibition of GSK-3 Activity (phospho-glycogen synthase peptide-2 phosphorylation, [γ-33P]ATP, scintillation counting). The assay is classed as biochemical. The settings on record: group stated as 20 nM<IC50<100 nM; read-out: GSK-3 inhibitor activity values (IC50 values). The procedure: The reaction was initiated by adding 25 μL of phospho-glycogen synthase peptide-2 substrate solution [containing 6 μM phospho-glycogen synthase peptide-2, 20 μM ATP, 16 mM MOPS buffer (pH 7.0), 0.2 mM EDTA, 20 mM magnesium acetate, 0.1 μ Ci[γ-^33P]ATP (relative activity: approximately 110 TBq/mmol)] to 5 μL of each test compound using 5% dimethylsulfoxide as a solvent, and further adding 20 μL of GSK-3β enzyme solution [containing 10 mU recombinant human GSK-3β, 20 mM MOPS buffer (pH 7.0), 1 mM EDTA, 0.1% polyoxyethylene lauryl ether(23 Lauryl Ether; Brij 35), 5% glycerol, and 0.1% β-mercaptoethanol. After 20 minutes at room temperature, the reaction was terminated by the addition of the equivalent amount of 200 mM phosphoric acid solution. 90 μL of the reaction product was spotted onto a multiscreen PH plate (manufactured by Millipore) and washed with 100 mM phosphoric acid solution. The plate was dried, and 30 μL of MicroScint-O (manufactured by Packard BioScience) was added thereto. To evaluate inhibitory activity, cpm was counted using a scintillation counter. Here, Phospho GS Peptide 2 is an amino acid peptide having the following sequence: […]P)-Glu-Asp-Glu-Glu-Glu.
Turning to `CC(C)(C)CC(=O)NCCn1c(-c2sccc2Cl)c(-c2cccnc2)c2nc[nH]c(=O)c21` [Compound 626, N-{2-[6-(3-chloro-thiophen-2-yl)-4-oxo-7-pyridin-3-yl-3-hydropyrrolo[3,2-d]pyrimidin-5-yl]ethyl}-t-butylacetylamide], the IC50 fell in the range of 20 to 100 nM. As for `Cc1ccc(CNC(=O)CCCn2c(C3CC3)c(-c3cnn(C)c3)c3nc[nH]c(=O)c32)cc1` [Compound 2332, 4-[6-cyclopropyl-7-(1-methylpyrazol-4-yl)-4-oxo-(3-hydropyrrolo[3,2-d]pyrimidin-5-yl)]-N-[(4-methylphenyl)methyl]butanamide], the IC50 lay within 20 to 100 nM.

Regarding `CC(=O)NCCn1c(-c2sccc2Cl)c(-c2cccnc2)c2nc[nH]c(=O)c21` [Compound 217, N-{2-[6-(3-chloro(2-thienyl))-4-oxo-7-(3-pyridyl)-3-hydropyrrolo[3,2-d]pyrimidin-5-yl]ethyl}acetamide], the IC50 fell in the range of 20 to 100 nM. Regarding `Cc1ccc(CNC(=O)CCCn2c(C3CC3)c(-c3cccnc3)c3nc[nH]c(=O)c32)cc1` [Compound 2331, 4-(6-cyclopropyl-4-oxo-7-(3-pyridyl)(3-hydropyrrolo[3,2-d]pyrimidin-5-yl))-N-[(4-methylphenyl)methyl]butanamide], the IC50 was 20 to 100 nM. With `O=C(NCCn1c(-c2sccc2Cl)c(-c2cccnc2)c2nc[nH]c(=O)c21)Nc1ccccc1` [Compound 793, 1-{2-[6-(3-chloro-thiophen-2-yl)-4-oxo-7-pyridin-3-yl-3-hydropyrrolo[3,2-d]pyrimidin-5-yl]ethyl}-3-phenylurea], the IC50 lay within 20 to 100 nM.

Staying with this assay, now noted: group stated as IC50<100 nM; read-out: GSK-3 inhibitor activity values (IC50 values).
On to `CC(C)(C)CC(=O)NCCn1c(-c2sccc2Cl)c(-c2cn[nH]c2)c2nc[nH]c(=O)c21` [Compound 629, N-{2-[7-(1H-pyrazol-4-yl)-6-(3-chloro-thiophen-2-yl)-4-oxo-3-hydropyrrolo[3,2-d]pyrimidin-5-yl]ethyl}-t-butylacetylamide], for which the IC50 is < 100 nM.
